From patent US20260234180A1, “AMINO ACID DERIVATIVE, PREPARATION METHOD THEREFOR, AND PHARMACEUTICAL COMPOSITION FOR TREATING HEPATITIS, COMPRISING SAME” (priority 2021, published 2026)

Tests used:
[1] = target: T1, NTCP, HepG2-hNTCP-C4 cell line (Homo sapiens, UniProt Q14973); experiment: Inhibition of binding of fluorescent-labeled PreS1 peptide, fluorescence imaging; settings: 10 M and 50 PM; compared to the HBV-induced group solely treated with PreS1
T1 construct: expressed in transfected cells; host or cells: HepG2-hNTCP-C4 (HepG2 cells expressing human NTCP)
T1 sequence (Q14973 1-349): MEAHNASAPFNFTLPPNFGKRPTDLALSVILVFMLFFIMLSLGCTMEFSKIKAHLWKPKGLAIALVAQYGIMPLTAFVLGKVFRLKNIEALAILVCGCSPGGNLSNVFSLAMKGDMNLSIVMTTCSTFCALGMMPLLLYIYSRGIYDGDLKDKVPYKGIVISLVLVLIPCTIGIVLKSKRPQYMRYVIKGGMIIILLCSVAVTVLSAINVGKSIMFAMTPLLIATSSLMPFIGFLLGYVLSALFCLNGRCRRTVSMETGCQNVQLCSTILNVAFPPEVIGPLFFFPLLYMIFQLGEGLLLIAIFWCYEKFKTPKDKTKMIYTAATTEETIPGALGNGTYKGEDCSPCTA
Description: Specifically, after placing a cover slip coated with fibronectin on a 24 well plate, a HepG2-hNTCP-C4 cell line, which is a cell line expressing NTCP, was seeded at a density of 1×10^5, followed by incubation overnight. Thereafter, 20 nM PreS1 and the compounds in Examples 1, 8, 9, and 44 were treated by diluting in culture media at 4° C. at a concentration of 50 μM, respectively. After 2 hours, the media were suctioned, followed by washing twice with 4° C. PBS, fixation with 4% paraformaldehyde for 20 minutes, and washing twice with 4° C. PBS. Thereafter, 300 nM 4′,6-diamidino-2-phenylindole (DAPI) was treated to stain the nucleus for 20 minutes, and then washing was followed once with distilled water (DW) and twice with 4° C. PBS. Subsequently, 10 μl of mounting media was loaded onto a slide glass, and a cover slip was placed thereon for observation under a fluorescence microscope.
Green fluorescence may be observed when PreS1 binds to a cell line expressing NTCP by FITC conjugated to PreS1.

Jurkat cell line = experiment: Cytotoxicity, WST-1 cell viability; assay type: cell-based, human; settings: 0.2 μM~50 μM, 24 and 48 hours
Description: For Example 1 (LCA-Ile), Example 44 (LCA-Val), Example 2 (UDCA-Ile), and Example 3 (UDCA-Val), cytotoxicity was evaluated in the Jurkat cell line, a human T lymphocyte-derived cell line. Jurkat cell lines were seeded at a density of 5×10^4 on a 96 well plate for overnight incubation, and each compound was treated at a concentration of 0.2 μM~50 μM for 24 or 48 hours. WST-1, a reagent for measuring cell viability, was loaded at 10 μl/well, and absorbance was measured at 440 nm using a microplate reader 2 hours later. The mean value of negative control (NC) group treated with only DMSO was calculated as 1 and the cytotoxicity for the remaining experimental group was evaluated.

HBV virus = experiment: HBV infection of HepG2-NTCP cells, Southern blot analysis; assay type: cell-based, hepatitis B virus (HBV); settings: 20 μM
Description: Specifically, the HepG2-NTCP cell line was cultured on a 6-well plate, incubation was performed overnight, HBV inhibitors were treated at a concentration of 20 μM, and the positive control Myrcludex-B (MyrB) was treated at a concentration of 200 nM, followed by culture for 24 hours. After HBV infection into the cells to make HBV 3000 genome equivalent per ml/cell (Geq/cell), the cell culture medium was replaced (medium changing, MC) a day after the viral infection to remove the virus unattached to cell membranes. In order to measure an amount of virus that entered the cell, medium changing (MC) was performed once more 4 days after viral infection. 2 days after replacement, HBeAg ELISA analysis was performed using a supernatant, and Southern blot analysis was performed with cell pellets.
First, the cell pellets were pipetted with 100 μl of HEPES lysis buffer (10 mM HEPES, 100 mM NaCl, 1 mM EDTA, 1% NP-40), placed on ice for 20 minutes, and then centrifuged with a centrifuge under the conditions at 4° C. and 13000 rpm. After transferring the supernatant only to the new microtube, 4.5 μl of nuclease buffer I (10 mM CaCl2), 12 mM MgCl2, DNase 10 units) was added to carry out a reaction at 37° C. for 2 hours, and 40 μl of 26% PEG solution was added, followed by a reaction on ice for 1 hour. After centrifuging with the centrifuge at 4° C. and 13000 rpm for 30 minutes, and the supernatant was removed cleanly. After releasing the pellets with 100 μl of nuclease buffer II (10 mM Tris, 8 mM CaCl2), 6 mM MgCl2), 287.5 μl of 0.5% SDS buffer (25 mM Tris, 10 mM EDTA, 0.5% SDS, 100 mM NaCl) was added, and 12.5 μl of 20 mg/ml proteinase K was added, followed by a reaction at 37° C. for 2 hours. 400 μl of phenol-chloroform-isoamyl alcohol was added, centrifugation was performed at room temperature at 13000 rpm after voltexing, the supernatant was transferred to a new tube, 40 μl of 3 M NaOAc was added, and 800 μl of 100% ethanol was added for inverting, followed by a reaction overnight at −20° C. After performing centrifugation at 4° C. and 13000 rpm for 30 minutes, 800 μl of 70% ethanol was added and mixed to the pellet obtained by removing the supernatant, centrifugation was performed at 4° C. and 13000 rpm for 10 minutes, and then the supernatant was discarded. The ethanol was dried for 5 minutes to leave only the HBV DNA pellets, and then the pellets were dissolved again in 15 μl of TE buffer (10 mM Tris, 1 mM EDTA). HBV DNA samples were loaded in 1% agarose gel, and electrophoresis was performed. It was then immersed in denature buffer (0.25 N NaOH, 1 M NaCl) for 30 minutes to denature dsDNA of HBV into ssDNA. The DNA in the gel was transferred to a Nylon membrane using a transfer buffer (0.4 M NaOH), the membrane was soaked with a 2×SSC buffer (sigma, cat #85639) for neutralization, followed by drying in air. The membrane was immersed in a church buffer (10% BSA, 0.5 M EDTA, 1 M NaPi, 20% SDS), and the radioisotopes were hybridized using a Mega prime kit (GE healthcare, RPN1607). After washing three times with washing buffer (2×SSC, 0.1% SDS), measurement was performed using radioisotope measurement equipment, and a relative replication rate (%) to the negative control group (Mock) was calculated and shown.

Row | Structure (SMILES) | binding between PreS1 and NTCP (green fluorescence imaging) [1] | cytotoxicity (Jurkat cell line) | amount of HBeAg DNA detected compared to the negative control group (Mock) (HBV virus)
1 | CC[C@@H](C)[C@H](NC(=O)CC[C@@H](C)[C@H]1CC[C@H]2[C@@H]3CC[C@@H]4C[C@H](O)CC[C@]4(C)[C@H]3CC[C@]12C)C(=O)O [Example 1, (2S,3R)-2-((R)-4-((3R,5R,8R,9S,10S,13R,14S,17R)-3-hydroxy-10,13-dimethyl-hexadecahydro-1H-cyclopenta[a]phenanthren-17-yl)pentanamido)-3-methylpentanoic acid] | inhibited in a concentration dependent manner | barely observed | relatively less amount
2 | CC[C@@H](C)[C@H](NC(=O)CC[C@@H](C)[C@H]1CC[C@H]2[C@@H]3[C@@H](O)C[C@@H]4C[C@H](O)CC[C@]4(C)[C@H]3CC[C@]12C)C(=O)O [Example 2, (2S,3R)-2-((R)-4-((3R,5S,7S,8R,9S,10S,13R,14S,17R)-3,7-dihydroxy-10,13-dimethyl-hexadecahydro-1H-cyclopenta[a]phenanthren-17-yl)pentanamido)-3-methylpentanoic acid] | inhibited in a concentration dependent manner | barely observed | relatively less amount
3 | CC(C)[C@H](NC(=O)CC[C@@H](C)[C@H]1CC[C@H]2[C@@H]3[C@@H](O)C[C@@H]4C[C@H](O)CC[C@]4(C)[C@H]3CC[C@]12C)C(=O)O [Example 3, (S)-2-((R)-4-((3R,5S,7S,8R,9S,10S,13R,14S,17R)-3,7-dihydroxy-10,13-dimethyl-hexadecahydro-1H-cyclopenta[a]phenanthren-17-yl)pentanamido)-3-methylbutanoic acid] | inhibited in a concentration dependent manner | barely observed | relatively less amount
4 | CC[C@@H](C)[C@H](NC(=O)CC[C@@H](C)[C@H]1CC[C@H]2[C@@H]3CC[C@@H]4C[C@H](O)CC[C@]4(C)[C@H]3C[C@H](O)[C@]12C)C(=O)O [Example 10, (2S,3R)-2-((R)-4-((3R,5R,8R,9S,10S,12S,13R,14S,17R)-3,12-dihydroxy-10,13-dimethyl-hexadecahydro-1H-cyclopenta[a]phenanthren-17-yl)pentanamido)-3-methylpentanoic acid] | – | – | relatively less amount
5 | CC(C)[C@H](NC(=O)CC[C@@H](C)[C@H]1CC[C@H]2[C@@H]3CC[C@@H]4C[C@H](O)CC[C@]4(C)[C@H]3CC[C@]12C)C(=O)O [Example 44, (S)-2-((R)-4-((3R,5R,8R,9S,10S,13R,14S,17R)-3-hydroxy-10,13-dimethyl-hexadecahydro-1H-cyclopenta[a]phenanthren-17-yl)pentanamido)-3-methylbutanoic acid] | inhibited in a concentration dependent manner | barely observed | relatively less amount
